Assay results from the NIST ThermoML archive (doi:10.1016/j.fluid.2010.08.022).

Conditions: 101.33 kPa, Liquid crystal of unknown type; for speed of sound: Sing-around technique in a fixed-path interferometer; for mass density: Vibrating tube method

CCCCCCCC/C=C\CCCCCCCC(=O)[O-].OCC[NH2+]CCO [bis(2-hydroxyethyl)ammonium oleate]
Conditions | mass density [kg/m3] | speed of sound [m/s]
278.14 K | 978.16 | 1601.5
278.39 K | 977.996 | 1600.3
278.64 K | 977.834 | 1599.2
278.89 K | 977.67 | 1598.1
279.14 K | 977.506 | 1596.9
279.39 K | 977.342 | 1595.7
279.64 K | 977.177 | 1594.6
279.89 K | 977.017 | 1593.5
280.15 K | 976.852 | 1592.3
280.4 K | 976.689 | 1591.2
280.65 K | 976.525 | 1590.1
280.89 K | 976.361 | 1589
281.15 K | 976.197 | 1587.9
281.4 K | 976.035 | 1586.8
281.65 K | 975.87 | 1585.7
281.9 K | 975.706 | 1584.6
282.15 K | 975.544 | 1583.5
282.4 K | 975.38 | 1582.5
282.65 K | 975.217 | 1581.4
282.9 K | 975.053 | 1580.3
283.15 K | 974.89 | 1579.3
283.4 K | 974.726 | 1578.2
283.65 K | 974.562 | 1577.2
283.9 K | 974.401 | 1576.2
284.15 K | 974.236 | 1575.1
284.4 K | 974.073 | 1574
284.65 K | 973.91 | 1573
284.9 K | 973.745 | 1572
285.15 K | 973.584 | 1571
285.4 K | 973.419 | 1569.9
285.65 K | 973.258 | 1568.9
285.9 K | 973.092 | 1567.9
286.15 K | 972.93 | 1566.9
286.4 K | 972.766 | 1565.8
286.65 K | 972.604 | 1564.8
286.9 K | 972.442 | 1563.8
287.15 K | 972.275 | 1562.8
287.4 K | 972.113 | 1561.8
287.65 K | 971.951 | 1560.8
287.9 K | 971.788 | 1559.8
288.15 K | 971.625 | 1558.8
288.4 K | 971.46 | 1557.8
288.65 K | 971.299 | 1556.7
288.9 K | 971.135 | 1555.8
289.15 K | 970.972 | 1554.8
289.4 K | 970.811 | 1553.8
289.65 K | 970.645 | 1552.8
289.9 K | 970.483 | 1551.8
290.15 K | 970.32 | 1550.8
290.4 K | 970.158 | 1549.8
290.65 K | 969.995 | 1548.9
290.9 K | 969.831 | 1547.9
291.15 K | 969.668 | 1546.9
291.4 K | 969.506 | 1545.9
291.65 K | 969.343 | 1544.9
291.9 K | 969.18 | 1543.8
292.15 K | 969.016 | 1542.7
292.4 K | 968.854 | 1541.7
292.65 K | 968.691 | 1540.8
292.9 K | 968.527 | 1539.8
293.15 K | 968.365 | 1538.9
293.4 K | 968.202 | 1538
293.65 K | 968.039 | 1537.1
293.9 K | 967.876 | 1536.2
294.15 K | 967.713 | 1535.3
294.4 K | 967.548 | 1534.4
294.65 K | 967.388 | 1533.5
294.91 K | 967.225 | 1532.7
295.15 K | 967.061 | 1531.8
295.4 K | 966.898 | 1530.9
295.66 K | 966.735 | 1530
295.91 K | 966.572 | 1529.1
296.16 K | 966.408 | 1528.3
296.4 K | 966.246 | 1527.4
296.66 K | 966.084 | 1526.5
296.91 K | 965.921 | 1525.6
297.16 K | 965.758 | 1524.8
297.41 K | 965.595 | 1523.9
297.66 K | 965.433 | 1523
297.91 K | 965.27 | 1522.2
298.16 K | 965.108 | 1521.3
298.41 K | 964.945 | 1520.5
298.66 K | 964.781 | 1519.6
298.9 K | 964.619 | 1518.8
299.15 K | 964.457 | 1517.9
299.4 K | 964.294 | 1517.1
299.66 K | 964.132 | –
299.91 K | 963.968 | 1515.4
300.16 K | 963.805 | 1514.5
300.4 K | 963.642 | 1513.7
300.66 K | 963.481 | 1512.8
300.9 K | 963.318 | 1512
301.16 K | 963.154 | 1511.2
301.41 K | 962.991 | 1510.3
301.66 K | 962.83 | 1509.5
301.91 K | 962.666 | 1508.7
302.16 K | 962.503 | 1507.8
302.41 K | 962.341 | 1507
302.66 K | 962.178 | 1506.1
302.91 K | 962.013 | 1505.3
303.16 K | 961.853 | 1504.5
303.41 K | 961.689 | 1503.6
303.66 K | 961.527 | 1502.8
303.91 K | 961.364 | 1502
304.16 K | 961.2 | 1501.2
304.41 K | 961.038 | 1500.3
304.66 K | 960.875 | 1499.5
304.91 K | 960.712 | 1498.7
305.16 K | 960.55 | 1497.9
305.41 K | 960.387 | 1497
305.66 K | 960.223 | 1496.2
305.91 K | 960.061 | 1495.4
306.16 K | 959.898 | 1494.6
306.4 K | 959.736 | 1493.8
306.65 K | 959.573 | 1493
306.91 K | 959.409 | 1492.1
307.16 K | 959.246 | 1491.3
307.41 K | 959.083 | 1490.5
307.66 K | 958.92 | 1489.7
307.91 K | 958.759 | 1488.9
308.16 K | 958.595 | 1488.1
308.4 K | 958.43 | 1487.3
308.65 K | 958.268 | 1486.5
308.91 K | 958.105 | 1485.7
309.16 K | 957.942 | 1484.9
309.4 K | 957.779 | 1484.1
309.66 K | 957.617 | 1483.3
309.91 K | 957.453 | 1482.5
310.16 K | 957.289 | 1481.7
310.41 K | 957.128 | 1480.9
310.66 K | 956.963 | 1480.1
